Reference: patent US10961200B2, “Small molecule inhibitors of lactate dehydrogenase and methods of use thereof” (THE UNITED STATES OF AMERICA, AS REPRESENTED BY THE …, priority 2014, dated 2021)

What follows are molecules tested against Human LDHA (Homo sapiens (Human), UniProt P00338) (assay: human LDHA primary biochemical assay (resazurin/diaphorase coupled, fluorescence)). Settings: LDHA inhibitory activity, activity level based on IC50 (Table 7).
Source text: Test compounds were placed in a Greiner Bio-One (Monroe, N.C.) 1536-well black solid bottom assay plate. 200 millimolar (mM) Tris HCl, pH 7.4, 100 micromolar […] EDTA and 0.01% TWEEN-20™, final concentration, was used as the assay buffer. The LDHA reagent was 2 nanomolar (nM) Human LDHA (Meridian Life Science, Inc., Memphis, Tenn.), final concentration, in assay buffer.
NS(=O)(=O)c1ccc(Cc2c(CC3CC3)nn(-c3nc(C(=O)O)cs3)c2-c2cc(F)cc(-c3cccc(F)c3)c2)cc1 [Compound 525, 4-((3-(cyclopropylmethyl)-5-(3′,5-difluoro-[1,1′-biphenyl]-3-yl)-1-(4-((oxo-l3-methyl)-l3-oxidanyl)thiazol-2-yl)-1H-pyrazol-4-yl)methyl)benzenesulfonamide] was tested, and the IC50 was 1000 to 57000 nM.
NS(=O)(=O)c1ccc(Cc2cn(-c3nc(C(=O)O)cs3)nc2-c2cccc(OC3CCCC3)c2)cc1 [Compound 460, 2-(3-(3-(cyclopentyloxy)phenyl)-4-(4-sulfamoylbenzyl)-1H-pyrazol-1-yl)thiazole-4-carboxylic acid] gave an IC50 of less than 100 nM.
Work on Cc1ccc(-c2nn(-c3nc(C(=O)O)cs3)cc2Cc2ccc(S(N)(=O)=O)cc2)cc1-c1cccc(F)c1 [Compound 497, 2-(3-(3′-fluoro-6-methyl-[1,1′-biphenyl]-3-yl)-4-(4-sulfamoylbenzyl)-1H-pyrazol-1-yl)thiazole-4-carboxylic acid] yielded an IC50 of 100 to 1000 nM.
With CCc1cccc(-c2cc(-c3nn(-c4nc(C(=O)O)cs4)cc3Cc3ccc(S(N)(=O)=O)cc3)ccc2C)c1 [Compound 488, 2-(3-(3′-ethyl-6-methyl-[1,1′-biphenyl]-3-yl)-4-(4-sulfamoylbenzyl)-1H-pyrazol-1-yl)thiazole-4-carboxylic acid] the IC50 was 100 to 1000 nM.
In the case of Cc1ccc(-c2nn(-c3nc(C(=O)O)cs3)cc2Cc2ccc(S(N)(=O)=O)cc2)cc1-c1cccnc1 [Compound 486, 2-(3-(4-methyl-3-(pyridin-3-yl)phenyl)-4-(4-sulfamoylbenzyl)-1H-pyrazol-1-yl)thiazole-4-carboxylic acid], the IC50 is reported as less than 100 nM.
Molecule Cc1cc(C)cc(-c2cc(-c3nn(-c4nc(C(=O)O)cs4)cc3Cc3ccc(S(N)(=O)=O)cc3)ccc2C)c1 [Compound 495, 2-(4-(4-sulfamoylbenzyl)-3-(3′,5′,6-trimethyl-[1,1′-biphenyl]-3-yl)-1H-pyrazol-1-yl)thiazole-4-carboxylic acid] has an IC50 of 100 to 1000 nM.
For COc1cccc(-c2cccc(-c3nn(-c4nc(C(=O)O)cs4)cc3Cc3ccc(S(N)(=O)=O)cc3)c2)c1 [Compound 521, 2-(3-(3′-methoxy-[1,1′-biphenyl]-3-yl)-4-(4-sulfamoylbenzyl)-1H-pyrazol-1-yl)thiazole-4-carboxylic acid], the IC50 was less than 100 nM.
Cc1ccc(-c2cccc(-c3nn(-c4nc(C(=O)O)cs4)c(C4CC4)c3Cc3ccc(S(N)(=O)=O)cc3F)c2)cc1 [Compound 355] was tested, and the IC50 was less than 100 nM.
For CC(C)(C)/C=C/c1cc(-c2nn(-c3nc(C(=O)O)cs3)c(CC3CC3)c2Cc2ccc([S+](N)(=O)[O-])c(F)c2)ccc1F [Compound 448], the IC50 was less than 100 nM.
Cc1cccc(-c2cccc(-c3nn(-c4nc(C(=O)O)cs4)cc3Cc3ccc(S(N)(=O)=O)cc3)c2)c1 [Compound 519, 2-(3-(3′-methyl-[1,1′-biphenyl]-3-yl)-4-(4-sulfamoylbenzyl)-1H-pyrazol-1-yl)thiazole-4-carboxylic acid] showed an IC50 of less than 100 nM.
Work on NS(=O)(=O)c1ccc(Cc2c(-c3cccc4ccccc34)nn(-c3nc(C(=O)O)cs3)c2O)cc1 [Compound 451] yielded an IC50 of 1000 to 57000 nM.

Same assay, conditions: LDHA inhibitory activity, assay of Example 1; activity level classes
NS(=O)(=O)c1ccc(NCc2cn(-c3nc(C(=O)O)cs3)nc2-c2ccccc2)cc1 [Compound 139, 2-(3-phenyl-4-(((4-sulfamoylphenyl)amino)methyl)-1H-pyrazol-1-yl)thiazole-4-carboxylic acid] gave an IC50 greater than 57000 nM.
Nc1c(Cc2ccc(S(N)(=O)=O)cc2)c(-c2ccccc2)nn1-c1cccc(C(=O)O)c1 [Compound 130, 3-(5-amino-3-phenyl-4-(4-sulfamoylbenzyl)-1H-pyrazol-1-yl)benzoic acid] gave an IC50 greater than 57000 nM.
Cc1ccc(-c2cc(-c3nn(-c4nc(C(=O)O)cs4)c(C4CC4)c3Cc3ccc(S(N)(=O)=O)cc3F)ccc2F)cc1 [Compound 253] was tested, and the IC50 was less than 100 nM.
CC(=O)Nc1c(-c2ccccc2)nn(-c2nc(C(=O)O)cs2)c1O [Compound 126, 2-(4-acetamido-5-hydroxy-3-phenyl-1H-pyrazol-1-yl)thiazole-4-carboxylic acid] showed an IC50 greater than 57000 nM.
With CC(C)C(=O)OCOC(=O)c1csc(-n2nc(-c3ccc(F)c(F)c3)cc2O)n1 [Compound 109, (isobutyryloxy)methyl 2-(3-(3,4-difluorophenyl)-5-hydroxy-1H-pyrazol-1-yl)thiazole-4-carboxylate] the IC50 was greater than 57000 nM.
Nc1c(Cc2ccc(S(N)(=O)=O)cc2)c(-c2ccccc2)nn1-c1ccc(C(=O)O)nn1 [Compound 191, 6-(5-amino-3-phenyl-4-(4-sulfamoylbenzyl)-1H-pyrazol-1-yl)pyridazine-3-carboxylic acid] showed an IC50 greater than 57000 nM.
Work on CCOC(=O)c1csc(-n2nc(CC3CC3)c(Cc3ccc(S(N)(=O)=O)cc3F)c2-c2ccc(F)c(-c3cccc(OC)c3)c2)n1 [Compound 319] yielded an IC50 greater than 57000 nM.
Cc1ccc(-c2cccc(-c3nn(-c4nc(C(=O)O)cs4)c(C(F)(F)F)c3Cc3ccc(S(N)(=O)=O)cc3)c2)cc1 [Compound 311] gave an IC50 of less than 100 nM.
COc1cccc(-c2cc(-c3c(Cc4ccc([S+](N)(=O)[O-])cc4)c(CC4CC4)nn3-c3nc(C(=O)O)cs3)ccc2F)c1 [Compound 236] was tested, and the IC50 was greater than 57000 nM.
NC(=O)c1csc(-n2nc(-c3ccccc3)c(Cc3ccc(S(N)(=O)=O)cc3)c2C(F)(F)F)n1 [Compound 127, 2-(3-phenyl-4-(4-sulfamoylbenzyl)-5-(trifluoromethyl)-1H-pyrazol-1-yl)thiazole-4-carboxamide] was tested, and the IC50 was greater than 57000 nM.
Molecule NS(=O)(=O)c1ccc(CNc2cn(-c3nc(C(=O)O)cs3)nc2-c2ccccc2)cc1 [Compound 142, 2-(3-phenyl-4-((4-sulfamoylbenzyl)amino)-1H-pyrazol-1-yl)thiazole-4-carboxylic acid] has an IC50 greater than 57000 nM.
CCOC(=O)c1csc(-n2nc(-c3ccc(F)c(F)c3)cc2O)n1 [Compound 121, ethyl 2-(3-(3,4-difluorophenyl)-5-hydroxy-1H-pyrazol-1-yl)thiazole-4-carboxylate] was tested, and the IC50 was greater than 57000 nM.
Work on NS(=O)(=O)c1ccc(Cc2c(-c3ccccc3)nn(-c3nc(CO)cs3)c2Cc2nnn[nH]2)cc1 [Compound 132, 4-((5-((1H-tetrazol-5-yl)methyl)-1-(4-(hydroxymethyl)thiazol-2-yl)-3-phenyl-1H-pyrazol-4-yl)methyl)benzenesulfonamide] yielded an IC50 greater than 57000 nM.
In the case of CCOC(=O)c1csc(-n2nc(-c3ccc(F)c(-c4cccc(F)c4)c3)c(Cc3ccc(S(N)(=O)=O)cc3F)c2CC2CC2)n1 [Compound 316], the IC50 is reported as 1000 to 57000 nM.
With Cc1ccc(-c2cccc(-c3nn(-c4nc(C(=O)O)cs4)c(CC4CC4)c3Cc3ccc(S(N)(=O)=O)cc3F)c2)cc1 [Compound 282] the IC50 was less than 100 nM.
For Cc1nn(-c2nc(C(=O)O)cs2)c(O)c1Cc1ccc(S(N)(=O)=O)cc1 [Compound 66, 2-(5-hydroxy-3-methyl-4-(4-sulfamoylbenzyl)-1H-pyrazol-1-yl)thiazole-4-carboxylic acid], the IC50 was greater than 57000 nM.
With NS(=O)(=O)c1ccc(Cc2c(-c3cccc(-c4ccccc4)c3)nn(-c3nc(C(=O)O)cs3)c2C2(C(F)(F)F)CC2)c(F)c1 [Compound 300] the IC50 was 100 to 1000 nM.
Work on CCOC(=O)c1csc(-n2nc(C3CCCCC3)c(Oc3ccc([S+](N)(=O)[O-])cc3)c2-c2ccccc2)n1 [Compound 273] yielded an IC50 greater than 57000 nM.
For CCOC(=O)c1csc(-n2nc(CC3CC3)c(Cc3ccc(S(N)(=O)=O)c(F)c3)c2-c2ccc(F)c(-c3cccc(F)c3)c2)n1 [Compound 317], the IC50 was greater than 57000 nM.

Same assay, conditions: read-out: Inhibitory activity IC50
NS(=O)(=O)N1CCN(Cc2cn(-c3nc(C(=O)O)cs3)nc2-c2ccccc2)CC1 [Compound 90, 2-(3-phenyl-4-((4-sulfamoylpiperazin-1-yl)methyl)-1H-pyrazol-1-yl)thiazole-4-carboxylic acid] gave an IC50 of 1000 to 57000 nM.
Cc1ccc(-c2cccc(-c3c(Cc4ccc([S+](N)(=O)[O-])cc4)c(CC4CC4)nn3-c3nc(C(=O)O)cs3)c2)cc1 [Compound 280] was tested, and the IC50 was 1000 to 57000 nM.
COc1cc(-c2c(Cc3ccc([S+](N)(=O)[O-])cc3)c(CC3CC3)nn2-c2nc(C(=O)O)cs2)ccc1F [Compound 277] was tested, and the IC50 was 1000 to 57000 nM.
Molecule N#CCc1cc(-c2ccc(F)c(F)c2)nn1-c1nc(C(=O)O)cs1 [Compound 74, 2-(5-(cyanomethyl)-3-(3,4-difluorophenyl)-1H-pyrazol-1-yl)thiazole-4-carboxylic acid] has an IC50 of 1000 to 57000 nM.
Molecule Cc1ccc(-c2cc(-c3c(Cc4ccc(S(N)(=O)=O)c(F)c4)c(CC4CC4)nn3-c3nc(C(=O)O)cs3)ccc2F)s1 [Compound 228, 2-(3-(cyclopropylmethyl)-5-(4-fluoro-3-(5-methylthiophen-2-yl)phenyl)-4-(3-fluoro-4-sulfamoylbenzyl)-1H-pyrazol-1-yl)thiazole-4-carboxylic acid] has an IC50 greater than 57000 nM.
In the case of N[S+](=O)([O-])c1ccc(Cc2c(CC3CC3)nn(-c3nc(C(=O)O)cs3)c2-c2cccc(-c3ccccc3)c2)cc1F [Compound 291], the IC50 is reported as 1000 to 57000 nM.
CCOC(=O)c1csc(-n2nc(-c3cccc(-c4ccccc4)c3)c(Cc3ccc(S(N)(=O)=O)cc3)c2N)n1 [Compound 56, ethyl 2-(3-([1,1′-biphenyl]-3-yl)-5-amino-4-(4-sulfamoylbenzyl)-1H-pyrazol-1-yl)thiazole-4-carboxylate] gave an IC50 of 1000 to 57000 nM.
With NS(=O)(=O)c1ccc(Oc2c(C3CCCC3)nn(-c3nc(C(=O)O)cs3)c2-c2ccccc2)cc1 [Compound 170, 2-(3-cyclopentyl-5-phenyl-4-(4-sulfamoylphenoxy)-1H-pyrazol-1-yl)thiazole-4-carboxylic acid] the IC50 was 1000 to 57000 nM.
For CCOC(=O)c1csc(-n2nc(-c3ccccc3)c(Cc3ccc(S(N)(=O)=O)cc3)c2C(F)(F)F)n1 [Compound 77, ethyl 2-(3-phenyl-4-(4-sulfamoylbenzyl)-5-(trifluoromethyl)-1H-pyrazol-1-yl)thiazole-4-carboxylate], the IC50 was 1000 to 57000 nM.
NS(=O)(=O)c1ccc(Cc2cn(-c3nc(C(=O)O)cs3)c3ccc(CN4CCOCC4)cc23)cc1 [Compound 32, 2-(5-(morpholinomethyl)-3-(4-sulfamoylbenzyl)-1H-indol-1-yl)thiazole-4-carboxylic acid] gave an IC50 of 1000 to 57000 nM.
